Each structure is given as a SMILES string.

This note sets out measurements from ChEMBL document CHEMBL5728723, “Pyrimidine compounds and pyrimido indole compounds and methods of use” (2021).

In assay [1] the target is Vascular endothelial growth factor receptor 1 (Homo sapiens, UniProt P17948). Kind of assay: (§1) Kinase Inhibition Assay: Table 9: Compounds 1 and 2, Section D., (see FIG. 4, bottom row, far right column) each inhibit VEGFR-2 and PDGFR-β for antiangiogenic effects and also inhibit human TS (hTS) for cytotoxic effects in single agents.12 The inhibitory potency of both these single agents against VEGFR-2, PDGFR-β, and hTS was better than or close to standards (Tables 9, 10).

Assay [2] concerns the target Epidermal growth factor receptor (Homo sapiens, UniProt P00533). The description is as §1.
Assay [3] concerns the target Platelet-derived growth factor receptor beta (Homo sapiens, UniProt P09619). The description is as §1.
For assay [4], the target named is Vascular endothelial growth factor receptor 2 (Homo sapiens, UniProt P35968). Described as §1.
Sequence of Vascular endothelial growth factor receptor 2 (P35968 whole entry): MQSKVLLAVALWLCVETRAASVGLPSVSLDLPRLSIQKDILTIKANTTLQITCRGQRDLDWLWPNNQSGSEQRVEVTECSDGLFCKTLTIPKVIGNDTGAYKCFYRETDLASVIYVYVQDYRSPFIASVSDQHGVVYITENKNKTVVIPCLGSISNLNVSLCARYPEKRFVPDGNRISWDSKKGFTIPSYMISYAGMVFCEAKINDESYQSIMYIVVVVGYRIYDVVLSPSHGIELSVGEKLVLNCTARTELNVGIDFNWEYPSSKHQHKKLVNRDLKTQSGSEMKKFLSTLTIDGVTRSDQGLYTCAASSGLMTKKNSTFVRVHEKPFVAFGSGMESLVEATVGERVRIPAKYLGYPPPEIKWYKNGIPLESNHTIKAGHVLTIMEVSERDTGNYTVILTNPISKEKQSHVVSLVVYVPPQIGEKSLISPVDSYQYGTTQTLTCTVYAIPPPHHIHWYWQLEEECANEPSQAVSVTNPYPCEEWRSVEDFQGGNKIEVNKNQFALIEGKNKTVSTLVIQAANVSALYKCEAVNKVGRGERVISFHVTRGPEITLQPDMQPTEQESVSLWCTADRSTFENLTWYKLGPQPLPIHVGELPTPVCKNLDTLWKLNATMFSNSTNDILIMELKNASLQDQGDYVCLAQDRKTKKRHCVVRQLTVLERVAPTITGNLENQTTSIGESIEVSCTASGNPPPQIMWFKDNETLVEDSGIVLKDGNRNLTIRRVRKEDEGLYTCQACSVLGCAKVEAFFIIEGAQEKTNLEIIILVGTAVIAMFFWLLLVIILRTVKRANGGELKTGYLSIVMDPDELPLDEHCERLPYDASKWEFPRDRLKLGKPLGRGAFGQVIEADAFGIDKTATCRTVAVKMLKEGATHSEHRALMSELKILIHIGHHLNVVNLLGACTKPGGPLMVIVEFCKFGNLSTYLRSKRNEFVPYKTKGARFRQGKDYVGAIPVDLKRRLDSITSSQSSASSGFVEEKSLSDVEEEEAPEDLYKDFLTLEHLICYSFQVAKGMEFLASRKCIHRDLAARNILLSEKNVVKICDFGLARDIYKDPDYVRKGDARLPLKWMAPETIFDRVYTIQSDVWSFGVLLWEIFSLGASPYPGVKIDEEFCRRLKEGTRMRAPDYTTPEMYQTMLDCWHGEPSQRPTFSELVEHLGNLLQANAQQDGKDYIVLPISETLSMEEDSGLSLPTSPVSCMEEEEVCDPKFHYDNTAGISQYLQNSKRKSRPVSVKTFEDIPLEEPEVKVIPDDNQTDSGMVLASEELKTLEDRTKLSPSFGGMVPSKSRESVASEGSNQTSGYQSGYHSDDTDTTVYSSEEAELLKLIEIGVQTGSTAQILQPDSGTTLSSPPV

Sequence of Platelet-derived growth factor receptor beta (P09619 whole entry): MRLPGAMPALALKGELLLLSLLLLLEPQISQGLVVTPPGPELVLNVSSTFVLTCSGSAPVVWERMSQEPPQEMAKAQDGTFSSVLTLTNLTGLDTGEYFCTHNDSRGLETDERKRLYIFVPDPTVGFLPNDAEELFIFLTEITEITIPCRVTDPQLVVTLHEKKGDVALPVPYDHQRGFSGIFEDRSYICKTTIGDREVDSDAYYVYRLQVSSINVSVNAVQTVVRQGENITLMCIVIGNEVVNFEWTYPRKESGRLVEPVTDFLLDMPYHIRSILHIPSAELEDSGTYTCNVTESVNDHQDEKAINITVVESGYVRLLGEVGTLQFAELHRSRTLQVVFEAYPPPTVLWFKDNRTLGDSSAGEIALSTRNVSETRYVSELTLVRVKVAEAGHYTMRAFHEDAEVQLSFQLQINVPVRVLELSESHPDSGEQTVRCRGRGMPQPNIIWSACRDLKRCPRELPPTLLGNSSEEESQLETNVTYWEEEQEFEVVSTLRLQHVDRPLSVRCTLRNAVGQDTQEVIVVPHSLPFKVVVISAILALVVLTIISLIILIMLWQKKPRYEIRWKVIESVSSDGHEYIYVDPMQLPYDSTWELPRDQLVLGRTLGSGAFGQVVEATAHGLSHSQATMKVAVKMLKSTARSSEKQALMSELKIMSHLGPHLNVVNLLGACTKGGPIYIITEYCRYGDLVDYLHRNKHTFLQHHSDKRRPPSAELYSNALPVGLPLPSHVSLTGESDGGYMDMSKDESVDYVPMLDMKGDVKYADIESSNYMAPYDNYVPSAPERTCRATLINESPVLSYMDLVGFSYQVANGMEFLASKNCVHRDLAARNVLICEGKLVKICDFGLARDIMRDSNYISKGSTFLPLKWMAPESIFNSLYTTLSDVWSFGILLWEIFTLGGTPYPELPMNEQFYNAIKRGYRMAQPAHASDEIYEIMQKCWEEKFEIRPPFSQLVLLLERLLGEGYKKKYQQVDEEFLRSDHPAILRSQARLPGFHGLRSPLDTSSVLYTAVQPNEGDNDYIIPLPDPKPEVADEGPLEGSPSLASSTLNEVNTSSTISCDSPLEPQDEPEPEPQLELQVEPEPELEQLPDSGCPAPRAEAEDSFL
Sequence of Vascular endothelial growth factor receptor 1 (P17948 whole entry): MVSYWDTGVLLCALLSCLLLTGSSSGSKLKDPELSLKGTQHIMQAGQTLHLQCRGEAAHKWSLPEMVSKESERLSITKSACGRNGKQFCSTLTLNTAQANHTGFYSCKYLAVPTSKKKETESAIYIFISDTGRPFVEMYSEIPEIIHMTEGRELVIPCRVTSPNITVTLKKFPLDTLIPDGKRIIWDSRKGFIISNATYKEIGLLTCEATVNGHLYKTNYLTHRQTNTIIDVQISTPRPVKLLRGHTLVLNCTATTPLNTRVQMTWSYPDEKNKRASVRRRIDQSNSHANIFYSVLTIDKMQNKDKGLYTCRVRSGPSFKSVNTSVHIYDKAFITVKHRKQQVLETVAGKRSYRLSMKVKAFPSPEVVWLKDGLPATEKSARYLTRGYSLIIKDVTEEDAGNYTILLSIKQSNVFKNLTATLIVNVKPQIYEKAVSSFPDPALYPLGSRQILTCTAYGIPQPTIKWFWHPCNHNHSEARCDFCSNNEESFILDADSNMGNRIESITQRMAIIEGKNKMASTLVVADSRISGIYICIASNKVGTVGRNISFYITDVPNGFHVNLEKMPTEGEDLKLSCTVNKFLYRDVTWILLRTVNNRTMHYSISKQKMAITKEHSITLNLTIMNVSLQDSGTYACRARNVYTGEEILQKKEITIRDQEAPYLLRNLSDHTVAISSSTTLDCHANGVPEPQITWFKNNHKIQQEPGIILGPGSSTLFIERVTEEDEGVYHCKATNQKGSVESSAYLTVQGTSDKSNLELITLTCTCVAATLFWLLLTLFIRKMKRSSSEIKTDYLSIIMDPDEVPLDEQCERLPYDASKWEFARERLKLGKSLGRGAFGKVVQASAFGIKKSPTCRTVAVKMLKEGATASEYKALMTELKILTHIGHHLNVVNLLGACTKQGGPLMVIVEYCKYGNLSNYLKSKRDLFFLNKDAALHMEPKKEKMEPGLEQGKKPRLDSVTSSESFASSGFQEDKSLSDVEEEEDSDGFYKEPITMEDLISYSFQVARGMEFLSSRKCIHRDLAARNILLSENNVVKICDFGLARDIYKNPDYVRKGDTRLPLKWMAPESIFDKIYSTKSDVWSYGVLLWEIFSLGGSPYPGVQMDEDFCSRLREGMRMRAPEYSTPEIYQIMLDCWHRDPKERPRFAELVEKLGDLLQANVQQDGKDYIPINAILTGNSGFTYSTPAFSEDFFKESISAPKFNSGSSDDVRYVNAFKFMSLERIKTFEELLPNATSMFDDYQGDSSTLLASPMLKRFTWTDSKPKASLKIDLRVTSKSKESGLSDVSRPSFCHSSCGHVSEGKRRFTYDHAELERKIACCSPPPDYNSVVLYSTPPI
Sequence of Epidermal growth factor receptor (P00533 whole entry): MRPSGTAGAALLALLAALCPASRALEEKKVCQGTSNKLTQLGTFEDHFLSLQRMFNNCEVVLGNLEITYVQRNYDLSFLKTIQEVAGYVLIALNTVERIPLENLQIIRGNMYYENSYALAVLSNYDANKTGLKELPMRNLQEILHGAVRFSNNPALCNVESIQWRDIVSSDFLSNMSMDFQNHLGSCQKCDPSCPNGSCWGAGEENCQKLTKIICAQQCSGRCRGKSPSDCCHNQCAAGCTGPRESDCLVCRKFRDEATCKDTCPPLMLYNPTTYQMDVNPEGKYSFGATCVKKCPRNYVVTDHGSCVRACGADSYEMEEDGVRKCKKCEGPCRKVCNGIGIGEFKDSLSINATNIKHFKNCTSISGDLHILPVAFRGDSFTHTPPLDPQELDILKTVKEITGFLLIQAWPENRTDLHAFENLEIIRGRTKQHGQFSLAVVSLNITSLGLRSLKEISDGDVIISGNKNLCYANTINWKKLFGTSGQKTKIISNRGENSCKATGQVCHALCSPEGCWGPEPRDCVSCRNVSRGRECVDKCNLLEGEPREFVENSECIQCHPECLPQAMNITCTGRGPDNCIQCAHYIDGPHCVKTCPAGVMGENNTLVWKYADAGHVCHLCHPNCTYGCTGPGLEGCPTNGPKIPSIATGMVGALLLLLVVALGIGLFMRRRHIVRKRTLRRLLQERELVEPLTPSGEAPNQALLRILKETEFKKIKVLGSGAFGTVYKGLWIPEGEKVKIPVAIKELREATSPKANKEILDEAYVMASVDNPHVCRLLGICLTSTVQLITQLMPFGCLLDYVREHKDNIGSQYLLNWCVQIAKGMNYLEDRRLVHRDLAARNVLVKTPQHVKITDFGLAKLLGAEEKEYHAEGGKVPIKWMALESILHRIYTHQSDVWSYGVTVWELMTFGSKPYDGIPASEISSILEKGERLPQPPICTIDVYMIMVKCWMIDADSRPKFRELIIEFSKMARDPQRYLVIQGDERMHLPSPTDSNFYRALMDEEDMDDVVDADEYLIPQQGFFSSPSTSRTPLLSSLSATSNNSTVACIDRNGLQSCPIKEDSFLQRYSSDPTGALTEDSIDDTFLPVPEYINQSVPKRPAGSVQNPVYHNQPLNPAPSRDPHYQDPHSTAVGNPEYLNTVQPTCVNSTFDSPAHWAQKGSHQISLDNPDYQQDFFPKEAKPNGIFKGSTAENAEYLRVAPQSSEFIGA

Broadly, the IC50 is the concentration at which inhibition is half-maximal. Higher therefore signals weaker potency. Turning to `COc1cccc(Sc2sc3nc(N)nc(N)c3c2C)c1`, the concentration for half-maximal inhibition (IC50) in assay [1] is 160 µM; in assay [2] it was 10.4 µM; in assay [3] it was 40.3 µM; in assay [4], 56.3 µM.
On to `COc1ccc(Sc2sc3nc(N)nc(N)c3c2C)cc1OC`, for which the IC50 in assay [1] is 118 µM; in assay [3] it was 2.8 µM; in assay [4], 22.6 µM.
